Read-outs that look alike come from different tables or passages of the source.
Key:
[1] = Solubility testing in toluene at −30° C.
Excerpt: Solubility testing was undertaken using the estimate of Fe content from C/H/N analysis. […] This procedure assumes the products below to contain substantially only C, H and Fe. Masses of product(s) sufficient to provide the required concentration of iron as condensation products were weighed into screw-cap vials and made up to 10.00 g with toluene. The samples were capped, shaken or swirled until homogenous then sealed using Parafilm™. The vials were then kept in an ethylene glycol/water filled bath held at −30° C. and periodically inspected for the appearance of solids or separation of liquid phases. After at least one week solids were separated by rapid filtration and soluble products isolated by removal of solvent under vacuum. Following analysis of the solids, maximum and minimum solubilities were estimated from the mass balance.

[2] = Viscosity of 2.5 wt % iron solutions in toluene (Bohlin CVO rheometer); assay type: physicochemical; conditions: toluene solution at 2.5 wt % Fe
Protocol: Viscosities of 2.5 wt % iron solutions were determined using a Bohlin Instruments CVO rheometer using a 4° 40 mm cone and plate at shear rates of either 2 Pa or 0.5 Pa.

[3] = Fuel stability, in-house Test Method 1; conditions: additive 20 ppm iron
[4] = toluene, −30° C., at least one week

Compound | Solubility at −30° C., 2.5 wt % Fe (appearance) [1] | Solubility at −30° C., 5.0 wt % Fe (appearance) [1] | Viscosity at −30° C. (mPas) [2] | Solubility at −30° C., 2.5 wt % Fe (appearance) [1, 4] | also measured
1,1-diferrocenyl 2-ethylhexane [Compound 4] | Clear | Clear | – | – | –
1,1-diferrocenyl cyclohexane [Compound 11] | – | – | 4.8 mPas | Clear | Solubility of Fe as product ([1]; toluene, −30° C.): ~4.9 wt %; Solubility at −30° C., 5.0 wt % Fe (appearance) [1, 4]: Powder
1,1-diferrocenylpentane [Compound 7] | Clear | Clear | 5.4 mPas | – | –
CC(C)C([c-]1cccc1)[c-]1cccc1.[Fe+2].[Fe+2].c1cc[cH-]c1.c1cc[cH-]c1 [Compound 5, 1,1-diferrocenyl-2-methyl propane] | – | – | – | Clear | –
[Fe+2].[Fe+2].c1cc[cH-]c1.c1cc[cH-]c1.c1ccc(CC([c-]2cccc2)[c-]2cccc2)cc1 [Compound 9, 1,1-diferrocenyl phenyl methane] | – | – | 4.3 mPas | Clear | Solubility at −30° C., 5.0 wt % Fe (appearance) [1, 4]: Clear
O=C1CCCC(=O)C1 [Compound 12, 1,3-Cyclohexanedione] | Clear | Crystals | – | – | Solubility of Fe as product [1]: 3.6 to 4.1 wt % by mass balance
CC(=O)CCC(C)=O [Compound 15, Acetonyl acetone] | Powder | Powder | – | – | –
Iron tris(2-ethylhexanoate) [Octanoate] | – | – | – | – | fuel stability (conclusion) [3]: markedly lower stability

Reference: US7452388B2, “Compositions comprising dimeric or oligomeric ferrocenes” (Innospec Limited, priority 2000, dated 2008)
